The values below come from patent publication US5008267A, “Pyrimidinedione compounds, method of producing the same and antiarrythmic agents containing the same” (Mitsui Toatsu Chemicals, Incorporated, priority 1988, dated 1991).

Where a name gives a salt, the structure may show the parent alone.

Test [1] deals with Purkinje fiber of the right ventricular free wall (myocardial action potential). Kind of test: Influence on myocardial action potential duration time (APD75), isolated right ventricular free wall, microelectrode in Purkinje fiber. Conditions: Canis lupus familiaris, 20 min, 20 minutes' incubation; for activation at 1 µg/mL: 1.0 μg/ml; for activation at 1 µg/mL / activation at 3 µg/mL / activation at 10 µg/mL: (B-A)/A×100, read-out: APD75 (%); for activation at 3 µg/mL: 3.0 μg/ml; for activation at 10 µg/mL: 10.0 μg/ml. Format: cell-based, dog.

Test [2] concerns ventricular muscle refractory period. The experiment in a line: Influence on ventricular muscle refractory period (ERP). Format: in vivo, mongrel dog. Conditions: Canis lupus familiaris, iv, i.v., (W-Y)/Y×100, read-out: ERP (%; extensibility of refractory period). Here is the method:
(2) Influence on ventricular muscle refractory period Refractory periods were measured in the following manner before and after each of the compounds and d-sotalol shown in Table 2 was separately administered to a vein or a duodenum, and ERP (%; extensibility of refractory period) was calculated from the measured values: ERP (%)=(W-Y)/Y×100 W: Refractory period after administration Y: Refractory period before administration To a mongrel adult dog, 30 mg/kg of pentobarbital was administered intravenously, and after being anesthetized, a pair of silver-silver chloride electrodes separated by 3 mm was sewn on an opened right ventricule, and electrical stimulation was given at an interval of 400 msec at a duration time of 4 msec under a current twice as much as the threshold. Afterward, a small amount of alcohol was injected into a sinus artery in order to extinguish a pacemaker activity, and the ventricular refractory period (ERP) was measured under ventricule pacing. That is, each 1 train comprised 10 stimulations having intervals of 400 msec, and an interval between the trains was usually 400 msec. However, this interval was shortened 10 msec by 10 msec at the time of the refractory period measurement, and an interval between the trains at the time when reaction to the first stimulation of the train disappeared was regarded as the refractory period. In this case, the electrical stimulation was fed in accordance with a program by a heart stimulation device (Diamedical Co., Ltd.; DHM-226-3).

Turning to `Cn1c(N2CCN(CC(=O)c3ccc([N+](=O)[O-])cc3)CC2)cc(=O)n(C)c1=O` [Compound 42, 1,3-dimethyl-6-[4-(4-nitrophenacyl)piperazin-1-yl]-2,4(1H,3H)-pyrimidinedione hydrochloride], in test [1], the activation at 1 µg/mL came out at 2%, the activation at 3 µg/mL was found to be 10% and the activation at 10 µg/mL came to 17%. In test [2], the change in vivo at 0.1 mg/kg came to 4.6%, the change in vivo at 0.3 mg/kg was determined as 9.4%, the change in vivo at 1 mg/kg is 11.7% and the change in vivo at 3 mg/kg worked out at 18.4%.
Turning to `Cn1c(N2CCN(CC(O)c3ccc([N+](=O)[O-])cc3)CC2)cc(=O)n(C)c1=O` (stereo not drawn) [Compound 44, 1,3-dimethyl-6-{4-[2-hydroxy-2-(4-nitrophenyl)ethyl]piperazin-1-yl}-2,4-(1H,3H)-pyrimidinedione hydrochloride], in test [1], the activation at 1 µg/mL amounted to 5%, the activation at 3 µg/mL worked out at 13% and the activation at 10 µg/mL turned out to be 21%. Further, in test [2], the change in vivo at 0.1 mg/kg was found to be 0%, the change in vivo at 0.3 mg/kg amounted to 7.7%, the change in vivo at 1 mg/kg stood at 19.9% and the change in vivo at 3 mg/kg stood at 27.8%.
`Cn1c(N2CCN(CCOc3ccc([N+](=O)[O-])cc3)CC2)cc(=O)n(C)c1=O` [Compound 53, 1,3-dimethyl-6-{4-[2-(4-nitrophenoxy)ethyl]piperazin-1-yl}-2,4(1H,3H)-pyrimidinedione hydrochloride]: in test [1], the activation at 1 µg/mL was determined as 8%, the activation at 3 µg/mL worked out at 22% and the activation at 10 µg/mL is 43%. Moreover, in test [2], the change in vivo at 0.1 mg/kg was 8.8%, the change in vivo at 0.3 mg/kg stood at 23% and the change in vivo at 1 mg/kg amounted to 30.1%.
`Cn1c(N2CCN(CCCOc3ccccc3[N+](=O)[O-])CC2)cc(=O)n(C)c1=O` [Compound 55, 1,3-dimethyl-6-{4-[3-(2-nitrophenoxy)propyl]piperazin-1-yl}-2.4(1H,3H)-pyrimidinedione hydrochloride]: in test [1], the activation at 3 µg/mL came to 18% and the activation at 10 µg/mL was 39%. In test [2], the change in vivo at 0.1 mg/kg came out at 0%, the change in vivo at 0.3 mg/kg worked out at 0%, the change in vivo at 1 mg/kg is 6.8% and the change in vivo at 3 mg/kg was 13.6%.
With `Cn1c(NCCN2CCN(c3ccc([N+](=O)[O-])cc3)CC2)cc(=O)n(C)c1=O` [Compound 64, 1,3-dimethyl-6-{2-[4-(4-nitrophenyl)piperazin-1-yl]ethylamino}-2,4(1H,3H)-pyrimidinedione oxalate], the activation at 0.3 µg/mL in test [1] (0.3 μg/ml, (B-A)/A×100) is 8%. In addition, in test [1], the activation at 1 µg/mL stood at 23% and the activation at 3 µg/mL was determined as 32%. In test [2], the change in vivo at 0.1 mg/kg came to 21.4%, the change in vivo at 0.3 mg/kg was determined as 28.6% and the change in vivo at 1 mg/kg stood at 28.6%.
Turning to `CN(CCCN1CCN(c2cc(=O)n(C)c(=O)n2C)CC1)c1ccc([N+](=O)[O-])cc1` [Compound 69, 1,3-dimethyl-6-{4-[3-(N-methyl-4-nitroanilino)propyl]piperazin-1-yl}-2,4(1H,3H)-pyrimidinedione oxalate], in test [1], the activation at 3 µg/mL came to 11% and the activation at 10 µg/mL was determined as 13%. Also, in test [2], the change in vivo at 0.1 mg/kg was 6.7%, the change in vivo at 0.3 mg/kg amounted to 6.7%, the change in vivo at 1 mg/kg worked out at 13.3% and the change in vivo at 3 mg/kg turned out to be 20%.
`CC(=O)c1cc([N+](=O)[O-])ccc1OCCCN1CCN(c2cc(=O)n(C)c(=O)n2C)CC1` [Compound 76, 1,3-dimethyl-6-{4-[3-(2-acetyl-4-nitrophenoxy)propyl]piperazin-1-yl}-2,4(1H,3H)-pyrimidinedione oxalate]: in test [1], the activation at 1 µg/mL worked out at 16% and the activation at 3 µg/mL worked out at 21%. In test [2], the change in vivo at 0.1 mg/kg was found to be 2.4%, the change in vivo at 0.3 mg/kg was found to be 4.3%, the change in vivo at 1 mg/kg was found to be 12.6% and the change in vivo at 3 mg/kg amounted to 16.5%.
As for `Cn1c(N2CCN(CCOc3ccc([N+](=O)[O-])cc3C(=O)c3ccccc3)CC2)cc(=O)n(C)c1=O` [Compound 99], in test [1], the activation at 1 µg/mL was found to be 9%, the activation at 3 µg/mL is 22% and the activation at 10 µg/mL is 29%. In addition, in test [2], the change in vivo at 0.1 mg/kg turned out to be 9.8%, the change in vivo at 0.3 mg/kg worked out at 14.7% and the change in vivo at 1 mg/kg amounted to 23.1%.
As for `Cn1c(N2CCN(CCCNc3ccc([N+](=O)[O-])cc3C(=O)c3ccccc3)CC2)cc(=O)n(C)c1=O` [Compound 111, 1,3-dimethyl-6-{4-[3-(2-benzoyl-4-nitroanilino)propyl]piperazin-1-yl}-2,4(1H,3H)-pyrimidinedione oxalate], in test [1], the activation at 1 µg/mL was 13% and the activation at 3 µg/mL came to 21%. In addition, in test [2], the change in vivo at 0.1 mg/kg came out at 7.7%, the change in vivo at 0.3 mg/kg stood at 10.9%, the change in vivo at 1 mg/kg was found to be 14% and the change in vivo at 3 mg/kg was 21%.
With `Cn1c(N2CCN(CCCc3ccc(C(=O)c4ccccc4)cc3[N+](=O)[O-])CC2)cc(=O)n(C)c1=O` [Compound 136, 1,3-dimethyl-6-{4-[3-(4-benzoyl-2-nitrophenyl)propyl]piperazin-1-yl}-2,4(1H,3H)-pyrimidinedione hydrochloride], in test [1], the activation at 1 µg/mL worked out at 11% and the activation at 3 µg/mL worked out at 14%. Besides, in test [2], the change in vivo at 0.3 mg/kg is 7.7%, the change in vivo at 1 mg/kg was found to be 15.4% and the change in vivo at 3 mg/kg came to 15.4%.
As for `Cn1c(N2CCN(CCc3ccc(C(=O)c4ccccc4)cc3[N+](=O)[O-])CC2)cc(=O)n(C)c1=O` [Compound 137, 1,3-dimethyl-6-{4-[2-(4-benzoyl-2-nitrophenyl)ethyl]piperazin-1-yl}-2,4(1H,3H)-pyrimidinedione oxalate], in test [1], the activation at 1 µg/mL was 32% and the activation at 3 µg/mL is 51%. In test [2], the change in vivo at 0.1 mg/kg was 6.3%, the change in vivo at 0.3 mg/kg is 6.3%, the change in vivo at 1 mg/kg was determined as 12.5% and the change in vivo at 3 mg/kg was 18.8%.
Turning to `Cn1c(N2CCN(CCCOc3ccc(Cl)cc3[N+](=O)[O-])CC2)cc(=O)n(C)c1=O` [Compound 140, 1,3-dimethyl-6-{4-[3-(4-chloro-2-nitrophenoxy)propyl]piperazin-1-yl}-2,4(1H,3H)-pyrimidinedione hydrochloride], in test [1], the activation at 1 µg/mL amounted to 6%, the activation at 3 µg/mL came to 17% and the activation at 10 µg/mL is 29%. Besides, in test [2], the change in vivo at 0.1 mg/kg stood at 0%, the change in vivo at 0.3 mg/kg turned out to be 3.55% and the change in vivo at 1 mg/kg stood at 3.55%.
As for `Cn1c(N2CCN(CCCOc3ccc([N+](=O)[O-])c(C(F)(F)F)c3)CC2)cc(=O)n(C)c1=O` [Compound 150, 1,3-dimethyl-6-{4-[3-(3-trifluoromethyl-4-nitrophenyloxy)propyl]piperazin-1-yl}-2,4(1H,3H)-pyrimidinedione oxalate], the activation at 3 µg/mL in test [1] came to 16%. Further, in test [2], the change in vivo at 0.1 mg/kg amounted to 0%, the change in vivo at 0.3 mg/kg is 0%, the change in vivo at 1 mg/kg was 6.3% and the change in vivo at 3 mg/kg came to 6.3%.
Consider `Cn1c(N2CCN(CCCOc3ccc([N+](=O)[O-])cc3N)CC2)cc(=O)n(C)c1=O` [Compound 153, 1,3-dimethyl-6-{4-[3-(2-amino-4-nitrophenyloxy)propyl]piperazin-1-yl}-2,4(1H,3H)-pyrimidinedione oxalate], for which, in test [1], the activation at 1 µg/mL worked out at 20% and the activation at 3 µg/mL worked out at 25%. In test [2], the change in vivo at 0.1 mg/kg amounted to 6.1%, the change in vivo at 0.3 mg/kg was determined as 9.1% and the change in vivo at 1 mg/kg came to 18.3%.
As for `COC(=O)c1ccc(OCCCN2CCN(c3cc(=O)n(C)c(=O)n3C)CC2)c([N+](=O)[O-])c1` [Compound 154, 1,3-dimethyl-6-{4-[3-(4-methoxycarbonyl-2-nitrophenyloxy)propyl]piperazin-1-yl}-2,4(1H,3H)-pyrimidinedione oxalate], in test [1], the activation at 1 µg/mL is 9%, the activation at 3 µg/mL was found to be 12% and the activation at 10 µg/mL came out at 20%. Also, in test [2], the change in vivo at 0.1 mg/kg was found to be 0%, the change in vivo at 0.3 mg/kg is 0%, the change in vivo at 1 mg/kg stood at 5.9% and the change in vivo at 3 mg/kg is 11.8%.
